Data on 1 molecule can be found in PMC5514153, “Targeting PTPRZ inhibits stem cell-like properties and tumorigenicity in glioblastoma cells” (Scientific Reports, 2017).

In the test the test system is C6 cells. Kind of test: Cell proliferation assay, C6 cells. The following applies: 48 h, 2% FBS. The format is cell-based, rat. As for the experimental part:
Figure 7 Cellular effects of NAZ2329 on the malignant phenotypes of C6 cells. (A) Phosphorylation of paxillin at Tyr-118. C6 cells were incubated with NAZ2329 for the indicated periods. Immunoprecipitated paxillin was analyzed by Western blotting using anti-pY118-paxillin and anti-paxillin. Blots are representative of five independent cultures. […] (B) Cell proliferation assay. C6 cells were incubated for 48 h with NAZ2329 in normal medium containing 2% FBS. […] (C) Boyden chamber assay. Cells were allowed to migrate for 3 h. DAPI-stained nuclei are shown before (total) and after (migrated) the removal of cells remaining in the top chamber. Scale bars, 100 µm. […] (D,E) Sphere formation (D) and SOX2 expression (E). C6 cells were cultured in CSC medium for 7 days with indicated concentrations of NAZ2329. Images are representative of five independent cultures. Scale bars, 100 µm. […] (F) Self-renewal of C6 spheres. C6 spheres were initially developed in CSC medium for 7 days, followed by an incubation with NAZ2329 in CSC medium for 5 days. Images are representative of five independent cultures. Scale bars, 100 µm. […]
Cells (3 × 10^4 cells) were inoculated into a 24-well plastic tissue culture plate with 500 µl of DMEM supplemented with 2% FBS and the indicated compounds for 48 h. Cells were harvested by trypsinization and then manually counted with a hemacytometer.

As to `CCOc1ccc(C(F)(F)F)cc1CSc1ccsc1C(=O)NS(=O)(=O)c1ccccc1` [NAZ2329], the cell proliferation result was “inhibited cell proliferation”.
